molecular target: T1, Flt-1 VEGF-receptor tyrosine kinase (Homo sapiens, UniProt P17948); experiment: Test for activity against Flt-1 VEGF-receptor tyrosine kinase; type: biochemical; details: kinase domain of Flt-1, poly(Glu,Tyr) 4:1, 8 μM [33P]-ATP, 10 minutes at room temperature
T1 construct: 10 ng of the kinase domain of Flt-1
T1 sequence (P17948 827-1158 limits assumed): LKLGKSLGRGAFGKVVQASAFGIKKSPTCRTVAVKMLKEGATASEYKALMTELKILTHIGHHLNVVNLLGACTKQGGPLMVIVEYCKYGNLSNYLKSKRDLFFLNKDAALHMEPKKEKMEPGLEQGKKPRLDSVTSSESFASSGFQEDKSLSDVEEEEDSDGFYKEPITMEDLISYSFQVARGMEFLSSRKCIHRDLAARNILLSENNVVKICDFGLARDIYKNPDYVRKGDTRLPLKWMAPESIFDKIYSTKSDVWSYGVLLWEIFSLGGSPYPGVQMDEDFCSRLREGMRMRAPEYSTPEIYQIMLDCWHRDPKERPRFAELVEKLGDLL
Experimental: Test for activity against VEGF-receptor tyrosine kinase. The test is conducted using Flt-1 VEGF-receptor tyrosine kinase. […] The reaction is then terminated by the addition of 10 μl 0.25 M ethylenediaminetetraacetate (EDTA) pH 7. Using a multichannel dispenser (LAB SYSTEMS, USA), an aliquot of 20 μl is applied to a PVDF (=polyvinyl difluoride) Immobilon P membrane (Millipore, USA), through a Millipore microtiter filter manifold and connected to a vacuum. Following complete elimination of the liquid, the membrane is washed 4 times successively in a bath containing 0.5% phosphoric acid (H3PO4) and once with ethanol, incubated for 10 minutes each time while shaking, then mounted in a Hewlett Packard TopCount Manifold and the radioactivity measured after the addition of 10 μl Microscint® (β-scintillation counter liquid).
The test is conducted using Flt-1 VEGF-receptor tyrosine kinase, as described hereinabove.

| Compound | IC50 [nM] |
| --- | --- |
| O=C(Nc1ccc(Cl)c(C(F)(F)F)c1)c1ccccc1NCc1ccncc1 [Example 7, 2-[(4-Pyridyl)methyl]amino-N-[4-chloro-3-(trifluoromethyl)phenyl]benzamide] | 560 |
| Cc1ccc(NC(=O)c2ccccc2NCc2ccncc2)cc1 [Example 5, 2-[(4-Pyridyl)methyl]amino-N-(4-methylphenyl)benzamide] | 260 |

system: not given; experiment: not given; details: not given

| Compound | melting point [°C] |
| --- | --- |
| O=C(Nc1cccc(C(F)(F)F)c1)c1ccccc1NCc1cccc2ncccc12 [Example 36, 2-[(5-Quinolinyl)methyl]amino-N-[3-(trifluoromethyl)phenyl]benzamide] | 176 to 178 |
| O=C(Nc1cccc(C(F)(F)F)c1)c1cc(F)c(F)cc1NCc1ccncc1 [Example 23, 4,5-Difluoro-2-[(4-pyridyl)methyl]amino-N-[3-(trifluoromethyl)phenyl]benzamide] | 175 to 178 |
| O=C(Nc1cc(F)cc(C(F)(F)F)c1)c1ccccc1NCc1ccncc1 [Example 10, 2-[(4-Pyridyl)methyl]amino-N-[3-fluoro-5-(trifluoromethyl)phenyl]benzamide] | 196 to 197 |
| O=C(Nc1cccc(C(F)(F)F)c1)c1ccccc1NCc1cccnc1 [Example 34, 2-[(3-Pyridyl)methyl]amino-N-[3-(trifluoromethyl)phenyl]benzamide] | 140 to 142 |
| O=C(Nc1ccc(Cl)c(C(F)(F)F)c1)c1ccccc1NCc1ccncc1 [Example 7, 2-[(4-Pyridyl)methyl]amino-N-[4-chloro-3-(trifluoromethyl)phenyl]benzamide] | 162 to 172 |
| CN(C(=O)c1ccccc1NCc1ccncc1)c1cccc(C(F)(F)F)c1 [Example 24, 2-[(4-Pyridyl)methyl]amino-N-methyl-N-[3-(trifluoromethyl)phenyl]benzamide] | 127 to 128 |
| O=C(Nc1ccccc1)c1ccccc1NCc1ccncc1 [Example 3, 2-[(4-Pyridyl)methyl]amino-N-phenylbenzamide] | 160 to 161 |
| O=C(Nc1cccc(Br)c1)c1ccccc1NCc1ccncc1 [Example 29, 2-[(4-Pyridyl)methyl]amino-N-(3-bromophenyl)benzamide] | 156 to 159 |
| O=C(Nc1cccc(C(F)(F)F)c1)c1ccccc1NCc1ccnc2ccccc12 [Example 35, 2-[(4-Quinolinyl)methyl]amino-N-[3-(trifluoromethyl)phenyl]benzamide] | 191 to 193 |
| COc1cc(NC(=O)c2ccccc2NCc2ccncc2)cc(C(F)(F)F)c1 [Example 13, 2-[(4-Pyridyl)methyl]amino-N-[3-methoxy-5-(trifluoromethyl)phenyl]benzamide] | 134 to 136 |
| CC(C)(C)c1ccc(NC(=O)c2ccccc2NCc2ccncc2)cc1 [Example 27, 2-[(4-Pyridyl)methyl]amino-N-[4-(1,1-dimethylethyl)phenyl]benzamide] | 168 to 170 |
| NC(=O)Nc1cccc(NC(=O)c2ccccc2NCc2ccncc2)c1 [Example 19, 2-[(4-Pyridyl)methyl]amino-N-[3-[(aminocarbonyl)amino]phenyl]benzamide] | 200 to 202 |
| N#Cc1cccc(NC(=O)c2ccccc2NCc2ccncc2)c1 [Example 16, 2-[(4-Pyridyl)methyl]amino-N-(3-cyanophenyl)benzamide] | 157 to 160 |
| O=C(Nc1ccc(F)c(C(F)(F)F)c1)c1ccccc1NCc1ccncc1 [Example 9, 2-[(4-Pyridyl)methyl]amino-N-[4-fluoro-3-(trifluoromethyl)phenyl]benzamide] | 183 to 185 |
| CN(C)c1cccc(NC(=O)c2ccccc2NCc2ccncc2)c1 [Example 20, 2-[(4-Pyridyl)methyl]amino-N-[3-(dimethylamino)phenyl]benzamide] | 152 to 154 |
| CC(C)(C)c1cccc(NC(=O)c2ccccc2NCc2ccncc2)c1 [Example 15, 2-[(4-Pyridyl)methyl]amino-N-[3-(1,1-dimethylethyl)phenyl]benzamide] | 144 to 147 |
| Cc1ccc(NC(=O)c2c(C)cccc2NCc2ccncc2)cc1 [Example 33, 2-[(4-Pyridyl)methyl]amino-N-(4-methylphenyl)-6-methylbenzamide] | 162 to 163 |
| CC(=O)Nc1cccc(NC(=O)c2ccccc2NCc2ccncc2)c1 [Example 18, 2-[(4-Pyridyl)methyl]amino-N-(3-acetylaminophenyl)benzamide] | 157 to 158 |
| NC(=O)c1cccc(NC(=O)c2ccccc2NCc2ccncc2)c1 [Example 32, 2-[(4-Pyridyl)methyl]amino-N-[3-(aminocarbonyl)phenyl]benzamide] | 195 to 203 |
| O=C(Nc1ccc(Cl)cc1)c1ccccc1NCc1ccnc2ccccc12 [Example 39, 2-[(4-Quinolinyl)methyl]amino-N-(4chlorophenyl)benzamide] | 178 to 209 |
| Cc1cccc(NC(=O)c2ccccc2NCc2ccncc2)c1 [Example 30, 2-[(4-Pyridyl)methyl]amino-N-(3-methylphenyl)benzamide] | 139 to 140 |
| O=C(Nc1ccc(Cl)cc1)c1ccccc1NCc1ncc[nH]1 [Example 40, 2-[(2-Imidazolyl)methyl]amino-N-(4chlorophenyl)benzamide] | 181 to 184 |
| O=C(Nc1cccc(Cl)c1)c1ccccc1NCc1ccncc1 [Example 28, 2-[(4-Pyridyl)methyl]amino-N-(3-chlorophenyl)benzamide] | 131 to 133 |
| COc1ccc(NCc2ccncc2)c(C(=O)Nc2cccc(C(F)(F)F)c2)c1 [Example 21, 5-Methoxy-2-[(4-pyridyl)methyl]amino-N-[3-(trifluoromethyl)phenyl]benzamide] | 175 to 178 |
| O=C(Nc1cc(Cl)cc(C(F)(F)F)c1)c1ccccc1NCc1ccncc1 [Example 8, 2-[(4-Pyridyl)methyl]amino-N-[3-chloro-5-(trifluoromethyl)phenyl]benzamide] | 190 to 194 |

More lines, now with the values ahead:

| melting point [°C] | Compound |
| --- | --- |
| 79 | CC(C)NC(=O)c1ccc(NC(=O)c2ccccc2NCc2ccncc2)cc1 [Example 68, 2-[(4-pyridyl)methyl]amino-N-[4-(isopropylcarbamoyl)phenyl]benzamide] |
| 127 | Cc1ccc(NCc2ccncc2)c(C(=O)Nc2ccc(Cl)cc2)c1 [Example 56, 5-methyl-2-[(4-pyridyl)methyl]amino-N-(4-chlorophenyl)benzamide] |
| 130 to 132 | O=C(Nc1cc2ccccc2cc1Br)c1ccccc1NCc1ccncc1 [Example 65, 2-[(4-pyridyl)methyl]amino-N-(3-bromo-2-naphthyl)benzamide] |
| 152 to 154 | COc1cc(NC(=O)c2ccccc2NCc2ccncc2)cc2ccccc12 [Example 64, 2-[(4-pyridyl)methyl]amino-N-(4-methoxy-2-naphthyl)benzamide] |
| 235 | O=C(Nc1ccc2cccc(O)c2c1)c1ccccc1NCc1ccncc1 [Example 54, 2-[(4-pyridyl)methyl]amino-N-(8-hydroxy-2-naphthyl)benzamide] |
| 143 | Cc1ccccc1NC(=O)c1ccccc1NCc1ccncc1 [Example 70, 2-[(4-pyridyl)methyl]amino-N-(2-methylphenyl)benzamide] |
| 102 to 103 | O=C(Nc1cccc(C(F)(F)F)c1)c1ccccc1NCCc1cccnc1 [Example 42, 2-[2-(3-Pyridyl)ethyl]amino-N-[3-(trifluoromethyl)phenyl]benzamide] |
| 183 to 185 | O=C(Nc1ccc(Cl)cc1)c1c(Cl)cccc1NCc1ccncc1 [Example 48, 6-chloro-2-[(4-pyridyl)methyl]amino-N-(4-chlorophenyl)benzamide] |
| 70 | CC(C)OC(=O)c1ccc(NC(=O)c2ccccc2NCc2ccncc2)cc1 [Example 66, 2-[(4-pyridyl)methyl]amino-N-[4-(isopropoxycarbonyl)phenyl]benzamide] |
| 143 | Cc1ccc(NC(=O)c2ccccc2NCc2ccncc2)cc1Cl [Example 69, 2-[(4-pyridyl)methyl]amino-N-(3-chloro-4-methylphenyl)benzamide] |
| 186 | O=C(Nc1ccc(Cl)cc1)c1ccc(Cl)cc1NCc1ccncc1 [Example 55, 4-chloro-2-[(4-pyridyl)methyl]amino-N-(4-chlorophenyl)benzamide] |
| 190 | Cc1cccc(NCc2ccncc2)c1C(=O)Nc1ccc(Cl)cc1 [Example 47, 6-methyl-2-[(4-pyridyl)methyl]amino-N-(4-chlorophenyl)benzamide] |
| 206 to 207 | O=C(Nc1ccc(Cl)cc1)c1cc(Cl)ccc1NCc1ccncc1 [Example 59, 5-chloro-2-[(4-pyridyl)methyl]amino-N-(4-chlorophenyl)benzamide] |

Reference: patent US7002022B2, “N-Aryl (thio) anthranilic acid amide derivatives, their preparation and their use as VEGF” (Novartis AG, priority 1998, dated 2006)
